How the values were obtained:
Calf Thymus DNA; RNA = assay: Nucleic acid detection in solution (fluorescence titration); format: binding; settings: 2 uM Dye No. 4 or 1.3 uM Compound 25 in TE buffer, fluorescence microplate reader
Method: Compound 25 of U.S. Pat. No. 7,446,202 and Dye No. 4 were compared in nucleic acid detection in solution. Calf Thymus DNA (Sigma) was used to titrate 2 uM Dye No. 4 or 1.3 uM Compound 25 of U.S. Pat. No. 7,446,202 in TE buffer. The fluorescence of the solution was measured on a fluorescence microplate reader (200 uL volume/well and 5 minutes incubation time). Same optical setting was used for both dyes as the two dyes have nearly identical spectral profile.

HeLa cells = assay: Live cell staining (cell membrane permeability, confocal microscopy); format: cell-based, human; settings: for cell staining after 5 minutes incubation / cell staining after 30 minutes incubation: HeLa cells, 37 C, dyes at 0.65 uM, Sybr Safe at 1×; for cellular staining of live cells (cell membrane permeability): normal working concentration used in gel staining, time not stated (FIG. 12)
Method: Dye No. 4, Dye No. […] and SYBR Safe are tested for their cell membrane permeability. HeLa cells were incubated with 1× Sybr Safe, 0.65 uM Dye No 4 and 0.65 uM Dye No. 11 in cell culture medium at 37 C. Hoechst 33342 (1 ug/mL) was included to stain DNA with blue fluorescence. Cells were imaged after 5 minutes and 30 minutes incubation on the appropriate fluorescence channel (FITC for Sybr Safe and Dye No. 4, and Cy3 for Dye No. […]) on a Zeiss LSM 700 confocal microscope. […] Hoechst staining for the same microscopic field is shown below each image (D-F, J-L).

[1] = tested on: 1 kb DNA ladder in 1% agarose gel; assay: Post staining of agarose gels; settings: 0.65 uM dye in water, 30 minutes, 1 kb DNA ladder 200-25 ng per lane
Method: Two-fold dilutions of 1 kb DNA ladder (Biotium, 200 ng-25 ng) or low-molecular weight DNA ladder (NEB, 50-12.5 ng/lane) were separated on 1% agarose/1×TBE gels in 1× TBE at 110 V for 90 minutes. Gels were post-stained with dyes at indicated concentrations in 50 mL staining solution with rocking for 30 minutes at room temperature, protected from light. The staining solutions were prepared by adding a dye stock solution in DMSO to water. […] In particular, dyes of the invention can readily penetrate dense polyacrylamide gels. […] Use of low dye concentration in the staining, coupled with the dyes' low cell membrane permeability (See below), makes the dyes safer to handle. Compound 25 of U.S. Pat. No. 7,446,202 is an asymmetric cyanine dye comprising a negatively charged substituent. The dye is described to be a sensitive dsDNA binding dye useful for selective dsDNA quantitation in solution. In this experiment, this dye is compared with the asymmetric cyanine dye Dye No. 4 of the present invention in detecting dsDNA in agarose gel. 1 kb DNA ladder (Biotium) was loaded on a 1% agarose/1×TBE gel at 200, 100, 50, or 25 ng per lane in duplicate and separated by electrophoresis at 100V. […]

[2] = tested on: Pimephales promelas (Fathead minnow); assay: California Title 22 toxicity test for hazardous waste characterization; format: in vivo; settings: 0.65 uM dye solution in water, aquatic life
Method: (§1) Stock solutions of Dye No. 11 and Dye No. 4 at 0.65 uM each in water were submitted to Nautilus Environmental (San Diego, Calif.) for California Title 22 toxicity testing for hazardous waste characterization. The solutions were tested at 750, 500, and 250 mg/L plus lab control in Pimephales promelas (Fathead minnow) in two replicates of 10 fish each according to the California Department of Fish and Game 1988 Acute Procedures.

[3] = as above; format: in vivo, Pimephales promelas; settings: Pimephales promelas (fathead minnow), in vivo; 0.65 uM dye solution in water tested at 750, 500 and 250 mg/L, Fathead minnow; read-out: median lethal concentration (LC50)
Method: as §1

[4] = tested on: 1 kb DNA ladder in 1% agarose TBE gels; assay: Prestaining of agarose gels; settings: dye mixed with DNA in loading buffer, compared with propidium iodide
Method: Two-fold dilutions of 1 kb DNA ladder (200 ng-25 ng per lane) were mixed with propidium iodide (PI) or Dye No, 10 in DNA loading buffer at the final concentrations indicated and separated on 1% agarose TBE gels containing no additional DNA dye.

SMILES	nucleic acid binding profile (dsDNA versus RNA) (Calf Thymus DNA; RNA)	cell staining after 5 minutes incubation (HeLa cells)	cell staining after 30 minutes incubation (HeLa cells)	cellular staining of live cells (cell membrane permeability) (HeLa cells)	signal of stained gel compared with Compound 25 [1]	classification under CCR Title 22 regulations [2]	LC50 [3] [µg/mL]	brightness in prestaining of gels [4]
C[n+]1c(C=C2C=CN(CCCSCC(N)C(=O)[O-])c3ccccc32)sc2ccccc21.I (stereo not shown) [Dye No. 4]	binds to both dsDNA and RNA	no staining was detectable	no staining was detectable	did not produce any cellular staining at all	significantly higher signal	non-hazardous	> 750	
CC[N+](C)(CC)CCC[n+]1c(-c2ccc(S(=O)(=O)[O-])cc2)c2cc(N)ccc2c2ccc(N)cc21.[I-] [Dye No. 10]								as bright as PI
C[N+](C)(C)CCC[n+]1c(-c2ccc(S(=O)(=O)[O-])cc2)c2cc(N)ccc2c2ccc(N)cc21.[I-] [Dye No. 11]		no staining was detectable	no staining was detectable	did not produce any cellular staining at all		non-hazardous	> 750	
